Assay results as given in ChEMBL document CHEMBL5661943, “ASAP - In vitro antiviral effect” (2024).
pEC50: −log10 of the molar value. “And” between values parts separate entries of the source, which are not always exact repeats. Equal entries are not always repeated.

What was measured:
[1] = test system: dengue virus type 2; experiment: (§1) Functional immunofluorescence assay to measure dose dependent changes in antiviral-drug inhibitory efficacy against Dengue virus type 2 Thailand/16681/84 in Vero E6/TMPRSS2 cells (cotreated with P-gp inhibitor, Elacridar). Cells are treated with antiviral candidates that are serially diluted, following infection, cells are fixed. EC50 is reported via analysis of immunofluorescence staining. The assay has been performed by Icahn School of Medicine at Mount Sinai.; assay type: organism-based, Chlorocebus sabaeus, VeroE6/TMPRSS2; conditions: Dengue virus; for EC90: P-gp concentration 2 uM, P-gp inhibitor Elacidar
[2] = test system: Zika virus; experiment: EC50 is reported via analysis of immunofluorescence staining. The assay has been performed by Icahn School of Medicine at Mount Sinai.; assay type: functional, organism-based, Chlorocebus sabaeus, VeroE6/TMPRSS2; conditions: for EC90: P-gp concentration 2 uM, P-gp inhibitor Elacidar
[3] = test system: dengue virus type 2; experiment: Functional assay to measure dose dependent changes in antiviral-drug inhibitory efficacy against Dengue virus type 2 New Guinea C in Vero E6 miRFP670 cells (cotreated with P-gp inhibitor, CP100356). Cells are treated with antiviral candidates that are serially diluted, following infection, cells are fixed. EC50 is reported via analysis of fluorescence intensity using high-content imager. The …; assay type: organism-based, Chlorocebus sabaeus, Vero C1008; conditions: Dengue virus; for EC90: P-gp concentration 500 nM, P-gp inhibitor CP100356
[4] = test system: Zika virus; experiment: Functional CPE-based assay to measure dose dependent changes in antiviral-drug inhibitory efficacy against Zika virus MR766 in Vero E6 miRFP670 cells. Cells are treated with antiviral candidates that are serially diluted. EC50 is reported via analysis of MTS assay as a readout of CPE. The assay has been performed by KU Leuven.; assay type: organism-based, Chlorocebus sabaeus, Vero C1008; conditions: Zika virus; for pEC50: Vero C1008; for EC90: Vero C1008, Baseline response 0 %, Maximum response 100 %
[5] = test system: dengue virus type 2; experiment: as §1, with “cells.” for “cells (cotreated with P-gp inhibitor, Elacridar).”; assay type: organism-based, Chlorocebus sabaeus; conditions: for pEC50: VeroE6/TMPRSS2
[6] = test system: Zika virus; experiment: as §1, with “Zika” for “Dengue”, “PRVABC59” for “type 2 Thailand/16681/84”, “cells.” for “cells (cotreated with P-gp inhibitor, Elacridar).”; assay type: organism-based, Chlorocebus sabaeus; conditions: for pEC50: VeroE6/TMPRSS2

## CC(C)Cc1nc2c(C(=O)Nc3ccc4c(c3)CNC4)cc(Br)cc2[nH]1
[1]; VeroE6/TMPRSS2
  pEC50: < 5.26
[1]; VeroE6/TMPRSS2, Maximum measured 192.149 %, Minimum measured 144.973 %
  EC90: > 5.56 µM
[2]; Zika virus, VeroE6/TMPRSS2
  pEC50: < 5.26
[2]; Zika virus, VeroE6/TMPRSS2, Baseline response 0 %, Hill slope -10.435, Maximum measured 137.671 %, Maximum response 100 %, Minimum measured 68.671 %, R squared 0.096
  EC90: > 5.56 µM
[3]; Vero C1008
  pEC50: < 6.11
[3]; Vero C1008, Maximum measured 122.11 %, Minimum measured 121.973 %
  EC90: > 0.781 µM
[4]
  pEC50: < 4.30
[4]; Hill slope 1.82, Maximum measured 17.962 %, Minimum measured -5.537 %, R squared 0.817
  EC90: > 50 µM

## O=C(Nc1ccc2c(c1)CNC2)c1cc(Cl)cc(-n2cccc2)c1
[1]; VeroE6/TMPRSS2
  pEC50: 4.82
[1]; VeroE6/TMPRSS2, Baseline response 0 %, Hill slope -12.71, Maximum measured 168.092 %, Maximum response 100 %, Minimum measured 22.727 %, R squared 0.109
  EC90: > 16.7 µM
[2]; Zika virus, VeroE6/TMPRSS2
  pEC50: < 5.26
[2]; Zika virus, VeroE6/TMPRSS2, Maximum measured 131.342 %, Minimum measured 97.756 %
  EC90: > 5.56 µM
[2]; Zika virus, VeroE6/TMPRSS2, Baseline response 0 %, Hill slope -0.378, Maximum measured 125.075 %, Maximum response 100 %, Minimum measured 52.976 %, R squared 0.223
  EC90: > 5.56 µM
[3]; Vero C1008
  pEC50: 4.74
[3]; Vero C1008, Baseline response 0 %, Hill slope -1.567, Maximum measured 91.76 %, Maximum response 100 %, Minimum measured 2.031 %, R squared 0.898
  EC90: > 50 µM
[4]
  pEC50: < 4.30
[4]; Hill slope 0.167, Maximum measured 17.974 %, Minimum measured 0.845 %, R squared 0.067
  EC90: > 50 µM

## O=C(Nc1ccc2c(c1)CNC2)c1cc(Br)cc2[nH]c(-c3ccccc3)nc12
[1]; VeroE6/TMPRSS2
  pEC50: < 4.30
[1]; VeroE6/TMPRSS2, Maximum measured 303.364 %, Minimum measured 144.726 %
  EC90: > 50 µM
[2]; Zika virus, VeroE6/TMPRSS2
  pEC50: < 5.26
[2]; Zika virus, VeroE6/TMPRSS2, Maximum measured 77.487 %, Minimum measured 34.255 %
  EC90: > 5.56 µM
[3]; Vero C1008
  pEC50: < 4.30
[3]; Vero C1008, Baseline response 0 %, Hill slope -0.881, Maximum measured 119.709 %, Maximum response 100 %, Minimum measured 77.354 %, R squared 0.142
  EC90: > 50 µM
[4]
  pEC50: > 6.41
[4]; Hill slope -0.169, Maximum measured 22.843 %, Minimum measured -3.22 %, R squared 0.045
  EC90: < 0.391 µM

## NCCCc1cccc(NC(=O)c2cc(Cl)cc(NC(=O)OCc3ccccc3)c2)n1
[1]; VeroE6/TMPRSS2
  pEC50: < 5.26
[1]; VeroE6/TMPRSS2, Baseline response 0 %, Hill slope -0.245, Maximum measured 101.026 %, Maximum response 100 %, Minimum measured 51.347 %, R squared 0.141
  EC90: > 5.56 µM
[5]
  pEC50: > 7.64
[5]; VeroE6/TMPRSS2, Baseline response 0 %, EC90 CI (lower) 0 uM, EC90 CI (upper) 0.069 uM, Hill slope -0.47, Maximum measured 66.667 %, Maximum response 100 %, Minimum measured 7.762 %, R squared 0.244
  EC90: 2.12 µM
[2]; Zika virus, VeroE6/TMPRSS2
  pEC50: 6.12
[2]; Zika virus, VeroE6/TMPRSS2, Baseline response 0 %, Hill slope -0.324, Maximum measured 72.025 %, Maximum response 100 %, Minimum measured 4.462 %, R squared 0.463
  EC90: > 16.7 µM
[6]
  pEC50: < 4.30
[6]; VeroE6/TMPRSS2, Maximum measured 444.624 %, Minimum measured 59.048 %
  EC90: > 50 µM

## Cc1cc(CN)cc(NC(=O)c2cc(Cl)cc(NC(=O)OCc3ccccc3)c2)c1
[1]; VeroE6/TMPRSS2
  pEC50: < 5.73
[1]; VeroE6/TMPRSS2, Maximum measured 126.603 %, Minimum measured 82.463 %
  EC90: > 1.85 µM
[5]
  pEC50: < 5.26
[5]; VeroE6/TMPRSS2, Maximum measured 117.926 %, Minimum measured 57.292 %
  EC90: > 5.56 µM
[2]; Baseline response 0 %, Hill slope -0.823, Maximum measured 127.605 %, Maximum response 100 %, Minimum measured 3.711 %, R squared 0.613
  EC90: > 5.56 µM
[2]; Zika virus, VeroE6/TMPRSS2, Baseline response 0 %, Hill slope -1.09, Maximum measured 145.706 %, Maximum response 100 %, Minimum measured 48.4 %, R squared 0.191
  EC90: > 3.33 µM
[2]; veroe6/tmprss2
  pEC50: 5.50 and 6.18
[6]
  pEC50: < 4.30
[6]; VeroE6/TMPRSS2, Maximum measured 728.77 %, Minimum measured 52.412 %
  EC90: > 50 µM
